Measurements: patent US7262204B2, “Modulation of CCR4 function” (Amgen Inc., priority 2000, dated 2007)

Molecular target: T1, CCR4 (Homo sapiens, UniProt P51679)
T1 construct: host or cells: CEM cells
T1 sequence (P51679 1-360): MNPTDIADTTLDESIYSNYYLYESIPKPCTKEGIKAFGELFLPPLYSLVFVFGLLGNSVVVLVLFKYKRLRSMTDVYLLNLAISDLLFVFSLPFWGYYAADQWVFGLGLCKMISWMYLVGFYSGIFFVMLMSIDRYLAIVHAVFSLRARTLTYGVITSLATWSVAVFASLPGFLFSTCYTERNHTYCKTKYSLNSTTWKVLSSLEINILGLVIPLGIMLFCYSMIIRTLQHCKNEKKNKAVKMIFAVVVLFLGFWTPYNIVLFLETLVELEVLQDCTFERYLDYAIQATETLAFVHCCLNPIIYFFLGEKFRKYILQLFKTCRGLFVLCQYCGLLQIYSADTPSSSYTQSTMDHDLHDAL
Assay: CCR4 binding assay (inhibition of 125I-TARC binding to cells expressing CCR4)
Conditions: CCR4 antagonist activity
From the text: This example illustrates a CCR4 binding assay that can be used for evaluating the compounds of the present invention.
Detection of Radiolabelled TARC and/or MDC Binding to CCR4
^125I-labelled TARC and MDC are available from commercial sources (e.g., Amersham-Pharmacia or Perkin Elmer Life Sciences). All buffers and materials are available from commercial sources (e.g., Gibco BRL, Sigma). To measure binding of ^125I-TARC or ^125I-MDC to cells expressing CCR4 (e.g., CEM cells, available from the ATCC), the ^125I-TARC or ^125I-MDC is diluted to a concentration of approximately 200 pM in a buffered saline solution (e.g., RPMI supplemented with 0.5% bovine serum albumin), and added to an equal volume of a suspension of cells (e.g., CEM cells at 5×10^6 cells/mL). The resulting mixture is incubated for a period of time (e.g., 2 hours). The unbound ^125I-TARC or ^125I-MDC is separated from the cells by filtration, e.g., by passage through GF/B filter plate (Packard Biosciences) pre-treated with 0.3% polyethyleneimine (Sigma), using a Packard Filtermate 96 (Packard Biosciences). The amount of ^125I-TARC or ^125I-MDC retained with the cells on the filterplate is measured by adding a small amount of scintillation fluid (e.g., 50 μL of Microscint-20, obtained from Packard Biosciences), and reading scintillation on appropriate detection equipment, e.g., a Packard TopCount 383 (Packard Biosciences).
Non-specific binding of ^125I-TARC or ^125I-MDC can be estimated by measuring the amount of ^125I-TARC or ^125I-MDC retained with the cells on the filterplate when the assay is performed in the presence of a large excess of unlabelled TARC or MDC.
Inhibition of ^125I-TARC or ^125I-MDC binding to CCR4 is defined as a decrease in the retention of ^125I-TARC or ^125I-MDC to the cells on the filterplate.
The assay described above varies only moderately from standardly used procedures, e.g., Imai et al. (1997) J. Biol. Chem. 272:15036-15042, Imai et al. (1998) J. Biol. Chem. 273:1764-1768.

Row | IC50 | SMILES
1 | > 1 µM | CC(C)CN(Cc1csc(Nc2cccc3ccccc23)n1)CC(C)C [Compound 15]
2 | > 1 µM | CC(C)CN(CC(C)C)C(C)c1csc(Nc2cccc3ccccc23)n1 (stereo not shown) [Compound 18]
3 | > 1 µM | c1ccc(CN2CCc3sc(Nc4cccc5ccccc45)nc3C2)cc1 [Compound 20]

Row | SMILES | IC50
4 | Clc1ccc2nc(Nc3cccc4ccccc34)sc2c1 [Compound 19] | < 1 µM
